Measurements as given in the supplement of paper PMC8617591.

How the values were obtained:
[1] = system: Mycobacterium tuberculosis Erdman (autoluminescent); experiment: GRinf, maximum normalised growth rate inhibition (three-drug combination) (unitless (-1 to 1)); higher = less effect (negative = killing)
Description: (§1)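 DiaMOND equipotent three-drug combination dose responses (10 doses, 1.5- or 2-fold spacing, centred on IC90) against autoluminescent M. tuberculosis Erdman in 8 in vitro models. Read-out is OD600, or luminescence for the intracellular and dormancy models, normalised to untreated wells. Hill-fit Einf, AUC25 and GRinf are potency metrics; FIC50 and FIC90 are total Loewe fractional inhibitory concentrations as log2 (negative = synergy).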

[2] = system: Mycobacterium tuberculosis Erdman (autoluminescent); experiment: Einf, fitted maximum growth inhibition of three-drug combination (fraction); higher = stronger maximal inhibition
Description: as §1

[3] = system: Mycobacterium tuberculosis Erdman (autoluminescent); experiment: AUC25, normalised area under dose response up to IC25 (three-drug combination) (fraction (0-1)); higher = more potent at low dose
Description: as §1

[4] = system: Mycobacterium tuberculosis Erdman (autoluminescent); experiment: total FIC90 (Loewe) at 90% inhibition, three-drug combination (log2); higher = more antagonistic
Description: as §1

[5] = system: Mycobacterium tuberculosis Erdman (autoluminescent); experiment: total FIC50 (Loewe) at 50% inhibition, three-drug combination (log2); higher = more antagonistic
Description: as §1

COc1nc2ccc(Br)cc2cc1[C@@H](c1ccccc1)[C@@](O)(CCN(C)C)c1cccc2ccccc12 [bedaquiline] + COc1c(N2C[C@@H]3CCCN[C@@H]3C2)c(F)cc2c(=O)c(C(=O)O)cn(C3CC3)c12 [moxifloxacin] + O=[N+]([O-])c1cn2c(n1)OC[C@@H](OCc1ccc(OC(F)(F)F)cc1)C2 [pretomanid]
Conditions | AUC25, [3] | Einf, [2] | GRinf, [1] | total FIC50, [5] | total FIC90, [4]
in vitro model: acidic pH 5.7, time point: constant (~7 days, model-specific) | 0.1 | 0.838 | -0.377 | 0.596 | –
in vitro model: acidic pH 5.7, time point: terminal (~4-5 doublings, model-specific) | 0.0692 | 0.971 | -0.329 | 0.946 | 0.743
in vitro model: intracellular J774, time point: constant = terminal | – | 0.972 | -0.42 | – | 0.518

Conditions | AUC25, [3] | Einf, [2] | GRinf, [1] | total FIC50, [5] | total FIC90, [4]
in vitro model: butyrate, time point: constant (~7 days, model-specific) | 0.11 | 0.974 | -0.202 | 0.96 | 1.4
in vitro model: butyrate, time point: terminal (~4-5 doublings, model-specific) | 0.0807 | 0.979 | -0.386 | 1.02 | 1.52
in vitro model: cholesterol 0.05 mM, time point: constant (~7 days, model-specific) | 0.102 | 0.689 | -0.187 | 0.771 | –
in vitro model: cholesterol 0.05 mM, time point: terminal (~4-5 doublings, model-specific) | 0.0953 | 0.946 | -0.21 | 0.672 | 0.565
in vitro model: cholesterol-high 0.2 mM, time point: constant (~7 days, model-specific) | 0.0866 | 0.945 | -0.309 | 0.743 | 1.24
in vitro model: cholesterol-high 0.2 mM, time point: terminal (~4-5 doublings, model-specific) | 0.082 | 1 | -0.571 | 0.598 | 0.93
in vitro model: dormancy (butyrate + nitrate, low O2), time point: constant (~7 days, model-specific) | 0.0412 | 0.905 | 0.272 | 0.0257 | -0.733
in vitro model: dormancy (butyrate + nitrate, low O2), time point: terminal (~4-5 doublings, model-specific) | 0.0577 | 0.995 | -0.1 | 0.157 | 0.118
in vitro model: standard 7H9 glycerol, time point: constant = terminal | 0.08 | 0.98 | -0.122 | -0.0856 | -0.137
in vitro model: valerate, time point: constant (~7 days, model-specific) | 0.123 | 0.932 | -0.393 | 0.261 | –
in vitro model: valerate, time point: terminal (~4-5 doublings, model-specific) | 0.0843 | 0.956 | -0.165 | 0.431 | 0.866

COc1nc2ccc(Br)cc2cc1[C@@H](c1ccccc1)[C@@](O)(CCN(C)C)c1cccc2ccccc12 [bedaquiline] + NC(=O)c1cnccn1 [pyrazinamide] + CO[C@H]1/C=C/O[C@@]2(C)Oc3c(C)c(O)c4c(O)c(c(/C=N/N5CCN(C6CCCC6)CC5)c(O)c4c3C2=O)NC(=O)/C(C)=C\C=C\[C@H](C)[C@H](O)[C@@H](C)[C@@H](O)[C@@H](C)[C@H](OC(C)=O)[C@@H]1C [rifapentine]
Conditions | AUC25, [3] | Einf, [2] | GRinf, [1] | total FIC50, [5] | total FIC90, [4]
in vitro model: acidic pH 5.7, time point: constant (~7 days, model-specific) | 0.105 | 0.951 | -0.444 | 0.212 | –
in vitro model: acidic pH 5.7, time point: terminal (~4-5 doublings, model-specific) | 0.0905 | 0.987 | -0.331 | 0.0918 | 0.167
in vitro model: intracellular J774, time point: constant = terminal | – | 0.984 | -0.419 | – | 0.111

Conditions | AUC25, [3] | Einf, [2] | GRinf, [1] | total FIC50, [5] | total FIC90, [4]
in vitro model: butyrate, time point: constant (~7 days, model-specific) | 0.109 | 0.973 | -0.292 | 0.368 | 0.452
in vitro model: butyrate, time point: terminal (~4-5 doublings, model-specific) | 0.0948 | 0.995 | -0.264 | 0.608 | 0.896
in vitro model: cholesterol 0.05 mM, time point: constant (~7 days, model-specific) | 0.113 | 0.75 | -0.416 | – | –
in vitro model: cholesterol 0.05 mM, time point: terminal (~4-5 doublings, model-specific) | 0.0882 | 0.854 | -0.194 | 0.907 | –
in vitro model: cholesterol-high 0.2 mM, time point: constant (~7 days, model-specific) | 0.0619 | 0.959 | -0.405 | 0.688 | –
in vitro model: cholesterol-high 0.2 mM, time point: terminal (~4-5 doublings, model-specific) | 0.0597 | 1 | -0.644 | 1.1 | 0.6
in vitro model: dormancy (butyrate + nitrate, low O2), time point: constant (~7 days, model-specific) | 0.0664 | 0.907 | 0.181 | -0.395 | -0.492
in vitro model: dormancy (butyrate + nitrate, low O2), time point: terminal (~4-5 doublings, model-specific) | 0.0515 | 0.988 | -0.135 | 0.0969 | -0.227
in vitro model: standard 7H9 glycerol, time point: constant = terminal | 0.0752 | 0.917 | 0.0581 | -0.269 | –
in vitro model: valerate, time point: constant (~7 days, model-specific) | 0.0676 | 0.855 | -0.194 | 0.992 | –
in vitro model: valerate, time point: terminal (~4-5 doublings, model-specific) | 0.0334 | 0.939 | -0.182 | 0.965 | 0.779

COc1nc2ccc(Br)cc2cc1[C@@H](c1ccccc1)[C@@](O)(CCN(C)C)c1cccc2ccccc12 [bedaquiline] + NC(=O)c1cnccn1 [pyrazinamide] + CO[C@H]1/C=C/O[C@@]2(C)Oc3c(C)c(O)c4c(O)c(c(/C=N/N5CCN(C)CC5)c(O)c4c3C2=O)NC(=O)/C(C)=C\C=C\[C@H](C)[C@H](O)[C@@H](C)[C@@H](O)[C@@H](C)[C@H](OC(C)=O)[C@@H]1C [rifampicin]
Conditions | AUC25, [3] | Einf, [2] | GRinf, [1] | total FIC50, [5] | total FIC90, [4]
in vitro model: acidic pH 5.7, time point: constant (~7 days, model-specific) | 0.0834 | 0.901 | -0.315 | 0.337 | –
in vitro model: acidic pH 5.7, time point: terminal (~4-5 doublings, model-specific) | 0.0711 | 0.981 | -0.241 | 0.285 | -0.207
in vitro model: intracellular J774, time point: constant = terminal | – | 0.999 | -0.44 | – | 0.24

Conditions | AUC25, [3] | Einf, [2] | GRinf, [1] | total FIC50, [5] | total FIC90, [4]
in vitro model: butyrate, time point: constant (~7 days, model-specific) | 0.118 | 0.967 | -0.45 | 0.454 | 0.281
in vitro model: butyrate, time point: terminal (~4-5 doublings, model-specific) | 0.11 | 0.993 | -0.729 | 0.529 | 0.948
in vitro model: cholesterol 0.05 mM, time point: constant (~7 days, model-specific) | 0.102 | 0.776 | -0.214 | – | –
in vitro model: cholesterol 0.05 mM, time point: terminal (~4-5 doublings, model-specific) | 0.0832 | 0.929 | -0.267 | 1.1 | –
in vitro model: cholesterol-high 0.2 mM, time point: constant (~7 days, model-specific) | 0.0476 | 0.933 | -0.352 | 0.834 | –
in vitro model: cholesterol-high 0.2 mM, time point: terminal (~4-5 doublings, model-specific) | 0.0598 | 1 | -0.624 | 1.34 | 0.74
in vitro model: dormancy (butyrate + nitrate, low O2), time point: constant (~7 days, model-specific) | 0.0673 | 0.914 | 0.179 | -0.454 | -0.722
in vitro model: dormancy (butyrate + nitrate, low O2), time point: terminal (~4-5 doublings, model-specific) | 0.0465 | 0.984 | -0.139 | -0.149 | -0.476
in vitro model: standard 7H9 glycerol, time point: constant = terminal | 0.0766 | 0.913 | 0.0332 | 0.401 | –
in vitro model: valerate, time point: constant (~7 days, model-specific) | 0.0558 | 0.839 | 0.0298 | 0.905 | –
in vitro model: valerate, time point: terminal (~4-5 doublings, model-specific) | 0.032 | 0.935 | 0.00447 | 0.857 | 0.584
